# Positions count from the first letter of the chain named. Where a name gives a salt, the structure may show the parent alone. Read-outs that look alike come from different tables or passages of the source.
# Legend:
# human K2P18.1 = target: T1, human K2P18.1 (Homo sapiens, UniProt Q7Z418); test: Thallium-flux assay, HEK293 cells transfected with human K2P18.1; type: cell-based; conditions: for K2P18.1 Minimum Activity: fitted minimum, fixed at 0 where indicated
# T1 sequence (Q7Z418 1-384): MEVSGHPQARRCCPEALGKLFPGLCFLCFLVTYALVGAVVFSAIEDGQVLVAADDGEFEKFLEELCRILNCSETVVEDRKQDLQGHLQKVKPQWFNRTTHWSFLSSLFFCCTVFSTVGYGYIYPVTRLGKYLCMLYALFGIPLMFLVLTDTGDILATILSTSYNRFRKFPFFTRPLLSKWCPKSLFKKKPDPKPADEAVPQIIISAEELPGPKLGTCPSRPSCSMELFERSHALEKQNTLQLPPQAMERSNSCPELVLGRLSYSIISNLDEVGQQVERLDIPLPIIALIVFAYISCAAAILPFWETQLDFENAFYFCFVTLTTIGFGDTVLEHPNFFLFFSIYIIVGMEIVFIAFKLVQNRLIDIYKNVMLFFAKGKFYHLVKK
# K2P9.1 [1] = target: T2, K2P9.1 (Homo sapiens, UniProt Q9NPC2); test: Thallium-flux counter assay, tetracycline induced HEK293-K2P9.1 cells; type: cell-based; conditions: for K2P9.1 Maximum Activity: dash = lack of compound activity
# [2] = target: T3, F145A/F352A double mutant K2P18.1 (mutK2P18.1) (Homo sapiens, UniProt Q7Z418, F145A/F352A); test: Thallium-flux assay, F145A/F352A double mutant K2P18.1 in HEK293 cells; type: cell-based
# T3 sequence (Q7Z418 1-384 F145A/F352A): T1 sequence (Q7Z418 1-384) with F145A, F352A
# [3] = target: T4, wild type K2P18.1 (wtK2P18.1) (Homo sapiens, UniProt Q7Z418); test: Whole-cell patch clamp, HEK293-wtK2P18.1; type: cell-based
# T4 sequence (Q7Z418 1-384): T1 sequence (Q7Z418 1-384)
# K2P9.1 [4] = target: T2, K2P9.1; test: Whole-cell patch clamp, tetracycline induced HEK293-K2P9.1 cells; type: cell-based
# [5] = target: T3, F145A/F352A double mutant K2P18.1 (mutK2P18.1); test: Whole-cell patch clamp, HEK293-mutK2P18.1; conditions: read-out: inhibition of mutK2P18.1 current
# mouse K2P18.1 = conditions: 1 mM; ref Kim et al., 2013; cited from earlier work
# [6] = tested on: F156A/F364A double mutant mouse K2P18.1; conditions: 1 mM; ref Kim et al., 2013; cited from earlier work
# [7] = read-out: K2P9.1 IC50, validation assay, Tl+ flux, HEK293-K2P9.1, highest 30 μM
# [8] = read-out: K2P18.1 EC50, validation assay, Tl+ flux, activators, highest 30 μM
# [9] = validation assay, Tl+ flux, activators
# [10] = read-out: K2P9.1 EC50, validation assay, Tl+ flux, activators, highest 30 μM
# [11] = read-out: inhibition of wtK2P18.1 current
# T2 sequence (Q9NPC2 whole entry): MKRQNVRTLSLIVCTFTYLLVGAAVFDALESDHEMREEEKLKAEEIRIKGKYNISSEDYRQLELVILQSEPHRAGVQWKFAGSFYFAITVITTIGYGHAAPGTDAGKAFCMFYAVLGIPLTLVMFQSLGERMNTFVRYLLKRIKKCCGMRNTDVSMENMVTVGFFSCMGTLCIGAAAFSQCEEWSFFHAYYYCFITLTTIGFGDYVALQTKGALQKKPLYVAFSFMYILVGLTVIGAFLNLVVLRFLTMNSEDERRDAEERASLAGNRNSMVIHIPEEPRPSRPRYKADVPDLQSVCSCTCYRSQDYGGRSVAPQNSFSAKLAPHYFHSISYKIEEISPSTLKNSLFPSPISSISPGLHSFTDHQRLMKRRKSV
molecule,measurement,setting,value
"Cc1c(CC(C)(C)C(=O)O)n(Cc2ccc(Cl)cc2)c2ccc(F)cc12 [L-655,240]",K2P18.1 Minimum Activity,"human K2P18.1; validation assay, Tl+ flux",0 (fixed) %
same,IC50,K2P9.1 [1]; [7],> 30 µM
CC(=O)OC(C)C[N+](C)(C)C.[Cl-] (stereo not drawn) [Acetyl-beta-methylcholine chloride],EC50,human K2P18.1; [8],0.65 µM
same,K2P18.1 Maximum Activity,human K2P18.1; [9],184 (± 2.38) %
same,EC50,K2P9.1 [1]; [10],> 30 µM
same,K2P9.1 Maximum Activity,K2P9.1 [1]; [9],-
C/C=C1\C(=O)C[C@H]2[C@@H]3CCC4=CC(=O)CC[C@]4(C)[C@H]3CC[C@]12C [(Z)-Gugglesterone],K2P18.1 Minimum Activity,"human K2P18.1; validation assay, Tl+ flux",0 (fixed) %
same,IC50,K2P9.1 [1]; [7],> 30 µM
"COc1cccc(-c2cc(=O)c3ccccc3o2)c1N [PD98,059]",K2P18.1 Minimum Activity,"human K2P18.1; validation assay, Tl+ flux",22.9 (± 23.3) %
same,IC50,K2P9.1 [1]; [7],> 30 µM
CCCn1c(C)c(C(=O)c2cccc3ccccc23)c2ccccc21 [JWH-015],K2P18.1 Minimum Activity,"human K2P18.1; validation assay, Tl+ flux",26.7 (± 2.1) %
same,IC50,K2P9.1 [1]; [7],> 30 µM
Clc1ccc(C(c2ccc(Cl)cc2)n2cc[n+](CC(OCc3ccc(Cl)cc3Cl)c3ccc(Cl)cc3Cl)c2)cc1 (centres unmarked) [Calmidazolium chloride],K2P18.1 Minimum Activity,"human K2P18.1; validation assay, Tl+ flux",0 (fixed) %
same,IC50,K2P9.1 [1],> 30 µM
Cl.Cl.Fc1ccc(C(OCCN2CCN(CCCc3ccccc3)CC2)c2ccc(F)cc2)cc1 [GBR-12909 dihydrochloride],K2P18.1 Minimum Activity,"human K2P18.1; validation assay, Tl+ flux",0 (fixed) %
same,IC50,K2P9.1 [1]; [7],> 30 µM
"C[N+](C)(C)CCOC(N)=O [Carbachol, carbamoylcholine chloride, (2-Hydroxyethyl)trimethyl-ammonium chloride carbamate]",EC50,human K2P18.1,1.59 µM
same,K2P18.1 Maximum Activity,human K2P18.1; [9],190 (± 9.96) %
same,EC50,K2P9.1 [1],> 30 µM
same,K2P9.1 Maximum Activity,K2P9.1 [1]; [9],-
COc1cc2c(cc1OC)-c1c/c(=N\c3c(C)cc(C)cc3C)n(C)c(=O)n1CC2 [Trequinsin hydrochloride],K2P18.1 Minimum Activity,"human K2P18.1; validation assay, Tl+ flux",3.90 (± 20.2) %
same,IC50,K2P9.1 [1],> 30 µM
CCCC(=O)NCCc1c2n(c3ccc(OC)cc13)CCCc1ccccc1-2 [K185],K2P18.1 Minimum Activity,"human K2P18.1; validation assay, Tl+ flux",0 (fixed) %
same,IC50,K2P9.1 [1]; [7],> 30 µM
CC[C@H](C)C(=O)O[C@H]1CCC=C2C=C[C@H](C)[C@H](CC[C@@H]3C[C@@H](O)CC(=O)O3)[C@H]21 [Mevastatin],K2P18.1 Minimum Activity,"human K2P18.1; validation assay, Tl+ flux",13.7 (± 7.6) %
same,IC50,K2P9.1 [1],> 30 µM
COc1cc([C@@H]2c3cc4c(cc3[C@H](O)[C@H]3COC(=O)[C@H]23)OCO4)cc(OC)c1OC [Podophyllotoxin],IC50,human K2P18.1,7.32 µM
same,K2P18.1 Minimum Activity,"human K2P18.1; validation assay, Tl+ flux",0 (fixed) %
same,IC50,K2P9.1 [1],> 30 µM
Cn1c(=O)c2c(nc(C=Cc3cccc(Cl)c3)n2C)n(C)c1=O [8-(3-Chlorostyryl)caffeine],K2P18.1 Minimum Activity,"human K2P18.1; validation assay, Tl+ flux",0 (fixed) %
same,IC50,K2P9.1 [1],> 30 µM
CN1CCN(C2Cc3ccccc3Sc3ccc(Cl)cc32)CC1.O=C(O)/C=C\C(=O)O (racemic) [(±)-Octoclothepin maleate],K2P18.1 Minimum Activity,"human K2P18.1; validation assay, Tl+ flux",0 (fixed) %
CCCCCCCCCCCCCC(=O)O[C@@H]1[C@@H](C)[C@@]2(O)[C@@H](C=C(CO)C[C@]3(O)C(=O)C(C)=C[C@@H]23)[C@@H]2C(C)(C)[C@]12OC(C)=O [Phorbol 12-myristate 13-acetate],EC50,human K2P18.1,0.03 µM
same,K2P18.1 Maximum Activity,human K2P18.1,130 (± 2.01) %
same,EC50,K2P9.1 [1],> 30 µM
same,K2P9.1 Maximum Activity,K2P9.1 [1]; [9],-
CC(C)c1ccc2c(c1)c(SC(C)(C)C)c(CC(C)(C)C(=O)O)n2Cc1ccc(Cl)cc1 [MK-886],K2P18.1 Minimum Activity,"human K2P18.1; validation assay, Tl+ flux",23.5 (± 6.6) %
same,IC50,K2P9.1 [1]; [7],> 30 µM
CCOC(=O)N1CCC(=C2c3ccc(Cl)cc3CCc3cccnc32)CC1 [Loratadine],K2P18.1 Minimum Activity,"human K2P18.1; validation assay, Tl+ flux",0 (fixed) %
same,inhibition at 150 µM,"[2]; HEK293, read-out: inhibition against mutK2P18.1",< 50%
same,lower potency against mutK2P18.1 compared to wtK2P18.1,[2]; Tl+ flux,at least 50 fold
same,IC50,[3],0.49 ± 0.23 µM
same,selectivity for K2P18.1 over K2P9.1,[3]; from patch clamp IC50 values,~ 11 fold
same,inhibition at 10 µM,[3]; [11],87.5 ± 3.7%
same,IC50,K2P9.1 [4],5.27 ± 1.69 µM
same,inhibition at 10 µM,[5],3.9 ± 13.3%
COCC(=O)O[C@]1(CCN(C)CCCc2nc3ccccc3[nH]2)CCc2cc(F)ccc2[C@@H]1C(C)C [Mibefradil dihydrochloride],K2P18.1 Minimum Activity,"human K2P18.1; validation assay, Tl+ flux",11.9 (± 2.04) %
Oligomycin A,K2P18.1 Minimum Activity,"human K2P18.1; validation assay, Tl+ flux",52.0 (± 4.21) %
C[C@@H]1O[C@H](C[N+](C)(C)C)CS1.[I-] [OXA-22 Iodide],EC50,human K2P18.1; [8],0.06 µM
same,K2P18.1 Maximum Activity,human K2P18.1; [9],166 (± 4.50) %
same,EC50,K2P9.1 [1]; [10],> 30 µM
same,K2P9.1 Maximum Activity,K2P9.1 [1]; [9],-
O=C(CCCN1CCC2(CC1)C(=O)NCN2c1ccccc1)c1ccc(F)cc1 [Spiperone Hydrochloride],EC50,human K2P18.1,3.02 µM
same,K2P18.1 Maximum Activity,human K2P18.1; [9],161 (± 4.90) %
same,EC50,K2P9.1 [1],> 30 µM
same,K2P9.1 Maximum Activity,K2P9.1 [1]; [9],-
Br.CO[C@H]1CC=C2CCN3CCC4=C(CC(=O)OC4)[C@]23C1 [Dihydro-beta-erythroidine hydrobromide],K2P18.1 Minimum Activity,"human K2P18.1; validation assay, Tl+ flux",0 (fixed) %
"CS(=O)(=O)O.Cc1c(C(=O)c2cccc3ccccc23)c2cccc3c2n1[C@H](CN1CCOCC1)CO3 [(R)-(+)-WIN 55,212–2 mesylate]",K2P18.1 Minimum Activity,"human K2P18.1; validation assay, Tl+ flux",25.6 (± 28.3) %
same,IC50,K2P9.1 [1]; [7],> 30 µM
OCc1ccc(-c2nn(Cc3ccccc3)c3ccccc23)o1 [YC-1],K2P18.1 Minimum Activity,"human K2P18.1; validation assay, Tl+ flux",0 (fixed) %
same,IC50,K2P9.1 [1]; [7],> 30 µM
C[N+](C)(C)CC#CCN1CCCC1=O [Oxotremorine Methiodide],EC50,human K2P18.1,0.24 µM
same,K2P18.1 Maximum Activity,human K2P18.1; [9],171 (± 4.60) %
same,EC50,K2P9.1 [1],> 30 µM
same,K2P9.1 Maximum Activity,K2P9.1 [1]; [9],-
COC(=O)C1=CCCN(C)C1 [Arecoline hydrobromide],EC50,human K2P18.1,2.7 µM
same,K2P18.1 Maximum Activity,human K2P18.1; [9],155 (± 10.8) %
same,EC50,K2P9.1 [1],> 30 µM
same,K2P9.1 Maximum Activity,K2P9.1 [1]; [9],-
"CCCCOC(=O)NS(=O)(=O)c1sc(CC(C)C)cc1-c1ccc(Cn2c(CC)nc3c(C)cc(C)nc32)cc1 [L-162,313]",K2P18.1 Minimum Activity,"human K2P18.1; validation assay, Tl+ flux",15.5 (± 12.5) %
same,IC50,K2P9.1 [1]; [7],> 30 µM
"CCN(CC)CC(=O)Nc1c(C)cccc1C [lidocaine, 2-Diethylamino-N-(2,6-dimethylphenyl)acetamide]",IC50,"human K2P18.1; IC50 for K2P18.1 inhibition without carbachol, Tl+ flux, absence of carbachol",3650 ± 380 µM
same,IC50,[2],11600 ± 7100 µM
same,inhibition at 1000 µM,[3]; [11],65.2 ± 10.4%
same,inhibition of wild type mouse K2P18.1,mouse K2P18.1,83 ± 5%
same,inhibition of F156A/F364A double mutant mouse K2P18.1,[6],20 ± 15%
same,inhibition at 1000 µM,[5],18.2 ± 5.8%
"CC1OCC(C[N+](C)(C)C)O1.[I-] (single isomer, unassigned; (+)) [(+)-cis-Dioxolane iodide]",EC50,human K2P18.1; [8],0.04 µM
same,K2P18.1 Maximum Activity,human K2P18.1; [9],165 (± 3.00) %
same,EC50,K2P9.1 [1]; [10],> 30 µM
same,K2P9.1 Maximum Activity,K2P9.1 [1]; [9],-
CC(=O)c1c(O)c(C)c(O)c(Cc2c(O)c3c(c(C(=O)/C=C/c4ccccc4)c2O)OC(C)(C)C=C3)c1O [Rottlerin],IC50,human K2P18.1,16.2 µM
same,K2P18.1 Minimum Activity,"human K2P18.1; validation assay, Tl+ flux",17.2 (± 42.4) %
same,IC50,K2P9.1 [1],> 30 µM
"Ic1ccccc1CNC1C2CCN(CC2)C1C(c1ccccc1)c1ccccc1.O=C(O)C(=O)O [L-703,606 oxalate]",K2P18.1 Minimum Activity,"human K2P18.1; validation assay, Tl+ flux",1.30 (± 9.2) %
CN(C)c1cc2c(Nc3ccc4c(cnn4Cc4ccccc4)c3)ncnc2cn1 [GW2974],K2P18.1 Minimum Activity,"human K2P18.1; validation assay, Tl+ flux",0 (fixed) %

# Reference: PMC4222048 (European journal of pharmacology, 2014)
